Reference: patent US11166959B2, “Isofuranone compounds useful as HPK1 inhibitors” (BRISTOL-MYERS SQUIBB COMPANY, priority 2017, dated 2021)
Like-named read-outs stand apart in the source and are kept apart here.

Key:
[1] = biological target: T1, IRAK4 (Homo sapiens, UniProt Q9NWZ3); assay: IRAK4 Inhibition Assay (kinase reaction, Caliper capillary electrophoresis); format: biochemical; details: 500 μM ATP, 11 concentrations
T1 construct: 1 nM IRAK4 (160-460); purchased SignalChem M24016
T1 sequence (Q9NWZ3 160-460): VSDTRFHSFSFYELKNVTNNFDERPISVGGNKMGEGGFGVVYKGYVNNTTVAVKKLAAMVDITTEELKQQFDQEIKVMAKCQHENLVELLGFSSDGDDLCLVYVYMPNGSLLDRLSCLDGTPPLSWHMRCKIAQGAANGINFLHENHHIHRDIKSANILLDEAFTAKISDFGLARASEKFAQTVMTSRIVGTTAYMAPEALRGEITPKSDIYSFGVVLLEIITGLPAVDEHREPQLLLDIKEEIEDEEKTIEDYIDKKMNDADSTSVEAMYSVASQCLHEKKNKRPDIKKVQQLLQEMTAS
Method: (§1) The reactions were incubated out for three hours and quenched with 1 mM EDTA solution. The reaction incubation time and enzyme concentration were optimized to obtain a maximum peptide substrate conversion of 20-30%. The reaction mixtures were analyzed by capillary electrophoresis on a Caliper LabChip EZ Reader to resolve phosphorylated and unphosphorylated peptide species and determine peptide substrate conversion. […] The compounds were dissolved in DMSO and evaluated at 11 concentrations to determine IC50 values.

[2] = biological target: T2, HPK1 (Homo sapiens, UniProt Q92918); assay: HPK1 Inhibition Assay (kinase reaction, Caliper capillary electrophoresis); format: biochemical; details: for IRAK4/HPK1 Ratio: ratio of the IRAK4 IC50 value to the HPK1 IC50 value
T2 construct: purchased SignalChem M23-11G
T2 sequence (Q92918 1-346 limits assumed): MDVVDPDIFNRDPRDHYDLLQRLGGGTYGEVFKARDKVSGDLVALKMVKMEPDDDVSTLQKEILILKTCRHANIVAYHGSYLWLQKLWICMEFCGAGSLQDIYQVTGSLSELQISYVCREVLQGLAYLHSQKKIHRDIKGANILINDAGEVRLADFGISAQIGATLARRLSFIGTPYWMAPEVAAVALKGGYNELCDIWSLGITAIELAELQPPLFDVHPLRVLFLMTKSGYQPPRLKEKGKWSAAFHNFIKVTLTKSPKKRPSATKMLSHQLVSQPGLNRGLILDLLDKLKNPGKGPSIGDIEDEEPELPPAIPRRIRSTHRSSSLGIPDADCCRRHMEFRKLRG
Method: as §1, with “to determine the IC50 values.” for “to determine IC50 values.”

[3] = 0.625 nM HPK1, 22 μM ATP, 11 concentrations, read-out: HPK1 IC50

Row | Compound | IC50 [1] [nM] | IRAK4/HPK1 Ratio [2] | IC50 [2, 3] [nM] | IC50 [2] [nM]
1 | CC1(C)OC(=O)c2ccc(Nc3cc(N[C@H](CO)c4ccccc4)c(-c4nc(C5CN6CCC5(F)CC6)no4)cn3)nc21 (stereo partly drawn) [Example 83, 2-{[5-(3-{4-fluoro-1-azabicyclo[2.2.2]octan-3-yl}-1,2,4-oxadiazol-5-yl)-4-{[(1S)-2-hydroxy-1-phenylethyl]amino}pyridin-2-yl]amino}-7,7-dimethyl-5H,7H-furo [3,4-b]pyridin-5-one] | 50 to 250 | C (C=>50) | – | < 50
2 | CC(NC(=O)c1cnc(Nc2ccc3c(c2)C(C)(C)OC3=O)nc1N[C@H](CO)c1ccccc1)c1ccccc1 (stereo partly drawn) [Example 15, 2-[(3,3-dimethyl-1-oxo-1,3-dihydro-2-benzofuran-5-yl)amino]-4-{[(1S)-2-hydroxy-1-phenylethyl]amino}-N-(1-phenylethyl)pyrimidine-5-carboxamide] | 250 to 1000 | B (B=10 to 50) | 50 to 250 | –
3 | CC1(C)OC(=O)c2ccc(Nc3ncc(-c4nc(C5CC(F)(F)C5)no4)c(N[C@H](CO)c4ccccc4)n3)cc21 [Example 40, 5-({5-[3-(3,3-difluorocyclobutyl)-1,2,4-oxadiazol-5-yl]-4-{[(1S)-2-hydroxy-1-phenylethyl]amino}pyrimidin-2-yl}amino)-3,3-dimethyl-1,3-dihydro-2-benzofuran-1-one] | 250 to 1000 | C (C=>50) | < 50 | –
4 | COCCNC(=O)c1cnc(Nc2ccc3c(c2)C(C)(C)OC3=O)nc1N[C@H](CO)c1ccccc1 [Example 8, 2-[(3,3-dimethyl-1-oxo-1,3-dihydro-2-benzofuran-5-yl)amino]-4-{[(1S)-2-hydroxy-1-phenylethyl]amino}-N-(2-methoxyethyl)pyrimidine-5-carboxamide] | 50 to 250 | B (B=10 to 50) | < 50 | –
5 | CC1(C)OC(=O)c2ccc(Nc3ncc(C(=O)NCC4CN5CCC4CC5)c(N[C@H](CO)c4ccccc4)n3)cc21 (stereo partly drawn) [Example 25, N-({1-azabicyclo[2.2.2]octan-3-yl}methyl)-2-[(3,3-dimethyl-1-oxo-1,3-dihydro-2-benzofuran-5-yl)amino]-4-{[(1S)-2-hydroxy-1-phenylethyl]amino}pyrimidine-5-carboxamide] | 250 to 1000 | B (B=10 to 50) | – | < 50

More lines, main results first:

Row | IC50 [1] [nM] | IRAK4/HPK1 Ratio [2] | IC50 [2, 3] [nM] | Compound | IC50 [2] [nM]
6 | 50 to 250 | B (B=10 to 50) | < 50 | O=C1OC2(CCCC2)c2nc(Nc3cc(N[C@H](CO)c4ccccc4)c(-c4nc(C5CC5)no4)cn3)ccc21 [Example 87, (S)-2′-((5-(3-cyclopropyl-1,2,4-oxadiazol-5-yl)-4-((2-hydroxy-1-phenylethyl)amino)pyridin-2-yl)amino)-5′H-spiro[cyclopentane-1,7′-furo[3,4-b]pyridin]-5′-one] | –
7 | 50 to 250 | B (B=10 to 50) | < 50 | CC1(C)OC(=O)c2ccc(Nc3ncc(-c4nnc(C5CCS(=O)(=O)CC5)o4)c(N[C@H](CO)c4ccccc4)n3)cc21 [Example 69, (S)-5-((5-(5-(1,1-dioxidotetrahydro-2H-thiopyran-4-yl)-1,3,4-oxadiazol-2-yl)-4-((2-hydroxy-1-phenylethyl)amino)pyrimidin-2-yl)amino)-3,3-dimethylisobenzofuran-1(3H)-one] | –
8 | 250 to 1000 | B (B=10 to 50) | < 50 | CC/N=C(\NCCCN(C)C)NNC(=O)c1cnc(Nc2ccc3c(c2)C(C)(C)OC3=O)nc1N[C@H](CO)c1ccccc1 [Example 59, 1-({2-[(3,3-dimethyl-1-oxo-1,3-dihydro-2-benzofuran-5-yl)amino]-4-{[(1S)-2-hydroxy-1-phenylethyl]amino}pyrimidin-5-yl}formohydrazido)-N-[3-(dimethylamino)propyl]-N′-ethylmethanimidamide] | –
